Read-outs that look alike come from different tables or passages of the source. One block for each molecule: values may come before it. Peptide text beside a SMILES is read from it.
Assays:
CD8+ T cells [1] = assay: Enrichment of epitope-specific CD8 T cells from healthy donors, epitope-specific IFNg production (ELISA); type: cell-based, human; conditions: positive co-cultures / co-cultures tested
Procedure: (§1) Enrichment of epitope-specific CD8 T cells was performed according to the protocol described by Butler et al., Clin Cancer Res.;13(6):1857-1867 (2007), doi:10.1158/1078-0432, but included the following amendments. CD8+ T lymphocytes were collected from PBMCs by magnetic-activated cell sorting (MACS) according to the CD8 isolation kit (Miltenyi Biotec). CD8+ T cells with >95% purity were subsequently cultured in T cell medium supplemented with IL-2 (36 IU/mL; but no gentamycin) for 1 day, after which expansion cycles started. K562ABC cells (kindly provided by prof. Bruce Levine, University of Pennsylvania, PA) were loaded with 10 μg/ml ROPN1 and/or ROPN1B peptide and incubated for 5 h at RT in serum-free medium, after which cells were washed and fixed with 0,1% paraformaldehyde. After washing, K562ABC cells were suspended at 0.1×10^6/mL and co-cultured with T cells in a 1:20 ratio. IL-2 (36 IU/mL) and IL-15 ([…]) were added at days 1 and 3 days after start of co-culture, and after 6 days, T cells were counted, suspended at 2×10^6/mL and rested for 1 day, after which the next cycle commenced (this schedule continued up to 4 or 5 cycles). Following 4 and 5 cycles, T cells were stained with pMHC multimers (HLA*0201/MLN, Immudex, Copenhagen, Denmark). pMHC-PE were pre-incubated at RT for 10 min followed by incubation with 7AAD, anti-CD3-FITC and anti-CD8-APC for 20 min. Cells were fixed with 1% paraformaldehyde and TCR expression was measured with flow cytometry and analyzed using FlowJoX software. FIG. 4A schematically depicts the procedure to enrich epitope-specific T cells, and obtainthe corresponding TCR genes.
Enriched T cells were tested for ROPN1 and/or ROPN1B epitope-specific IFNY production. To this end, T2 cells (4×10^6/mL) were loaded with peptide (20 ng/mL) for 30 min. T cells (2×10^5) were cultured in a 1:1 ratio with T2 cells in a round bottom 96-wells plate, and the next day supernatant was collected and IFN-γ production was measured with an Enzyme-linked immunosorbent assay (ELISA, Invitrogen) according to manufacturer's protocol (FIG. 4B). T2 cells without peptide were included as a negative control; and staphylococcal enterotoxin B (0.1 μg, Sigma) was used as a positive control.
Enrichment of epitope-specific T cells was performed by co-culturing naïve T cells with CD11c-positive cells that were loaded with peptide. PBMCs were passed through a cell strainer (70 μm) and used for the isolation of naïve T cells and CD11c cells. To isolate CD11c-positive cells (typically dendritic cells, DC), PBMCs were stained for 10 mM at 4° C. with Fc block (10 μL/10^7 PBMCs, BD Pharmingen, Vianen, the Netherlands), after which cells were stained with CD11c-PE antibody (10 μL/10^7 PBMCs, BD Pharmingen) for 30 mM at 4° C., washed, and incubated with PE beads (10 μL/10^7 PBMCs, Miltenyi Biotech, Bergisch Gladbach, Germany) for another […] at 4° C. After washing, cells were dissolved in magnetic-activated cell sorting (MACS) buffer and passed through a MACS LS column (Miltenyi Biotec) to positively select CD11c cells. After selection, CD11c cells were irradiated with 30 Gy, and cultured overnight in a 24-wells plate (1×10^6/mL) in RPMI medium supplemented with 1% human serum (Sanquin), 1% antibiotics, […] L-glutamine, a DC maturation cocktail (a mixture of GM-CSF (10 ng/mL, ImmunoTools, Germany), IL-4 (10 ng/mL, ImmunoTools), LPS (100 ng/mL, Invitrogen, Goteborg, Sweden) and IFNY (10 ng/mL, Preprotech, London, United Kingdom)), as well as peptide (10 pg/mL). Naïve T cells were isolated with use of the Naïve T Cell isolation kit (Miltenyi Biotec) according to the manufacturer's protocol, and suspended in RPMI medium supplemented with 5% human serum (Sanquin), 1% antibiotics, […] L-glutamine and IL-7 (5 ng/mL, BD Pharmingen). The run-through of the naïve T cell selection was frozen down and used for re-stimulation of epitope-specific T cells. […]

HLA-A2 = target: T1, HLA-A2 (Homo sapiens, UniProt P04439, D140Y/D185E/D98H/E176V/E277Q/G131W/G231S/I119V/I121R/I166T/I218V/L300P/L318F/N151K/N90K/P208A/P217A/Q86G/Q94H/R138H/R169H/T345S); assay: HLA-A2 stabilization assay using T2 cells; type: binding; conditions: for binding to HLA-A2: in words, peptides derived from immunopeptidome
T1 construct: The HLA-A2 stabilization assay was performed using T2 cells; endogenous in cells; host or cells: T2 cells (LCLxT lymphoblastoid hybrid cell line 0.1743CEM.T2)

CD8+ T cells [2] = assay: peptide:MHC multimer/tetramer staining of enriched T cells (flow cytometry); type: cell-based, human; conditions: Table 4; enriched T cells after enrichment cycles
Procedure: as §1
Following enrichment, T cells were tested for ROPN1 and/or ROPN1B epitope-specific IFNY production. To this end, T2 cells (1×10^6/mL) were loaded with peptide (20 ng/mL) for 30 min, after which T cells (1×10^5) were cultured in a 1:1 ratio with T2 cells in a round bottom 96-wells plate for 18 h. Supernatant was collected and IFN-γ production was measured with an Enzyme-linked immunosorbent assay (ELISA, BioLegend) according to the manufacturer's protocol (FIG. 9A). T2 cells loaded with an irrelevant peptide were included as a negative control. T cell IFNg production was considered epitope-specific in case levels exceeded 200 pg/ml, and levels were minimally twice as high as for irrelevant peptide (see for full listing of criteria, FIG. 8). T cells that fulfilled these criteria were stained with peptide:MHC (pMHC) tetramers to determine the frequency of epitope-specific T cells. Empty Loadable HLA Tetramers (5 μL, Tetramer shop, Kongens Lyngby, Denmark) were incubated with 0.5 μL peptide (200 μM) for 30 min on ice. Complexes of pMHC were centrifuged (3300 g, 5 min) and incubated with 0.1×10^6 T cells for 15 min at 37° C. in the dark. Next, an antibody cocktail containing CD3-FITC (1:30, BD) and CD8-APC (1:300, eBiosciences) was added and incubated for an additional 30 min at 4° C. in the dark. Finally, T cells were washed twice and fixed with 1% paraformaldehyde (PFA), after which events were acquired with FACSCelesta (BD) and analyzed using FlowJoX software.

[3] = target: T2, HLA-A2 (HLA-A2:01) on T2 cells (human); assay: HLA-A2 stabilization assay on T2 cells (anti-HLA-A2-PE, flow cytometry), single peptide concentration 25 ug/mL [panel E]
T2 construct: detected with anti-HLA-A2 mAb BB7.2

[4] = target: T2, HLA-A2 (HLA-A2:01) on T2 cells; assay: HLA-A2 stabilization assay on T2 cells (anti-HLA-A2-PE, flow cytometry), single peptide concentration [panel D]
[5] = target: T2, HLA-A2 (HLA-A2:01) on T2 cells; assay: HLA-A2 stabilization assay on T2 cells, peptide titration; amplitude = highest data point corrected for baseline [panel E]
[6] = target: T2, HLA-A2 (HLA-A2:01) on T2 cells; assay: HLA-A2 stabilization assay on T2 cells, peptide titration (Example 2, repeated); column Affinity for HLA.A2.01 (M)
[7] = target: T2, HLA-A2 (HLA-A2:01) on T2 cells; assay: HLA-A2 stabilization assay on T2 cells, peptide titration; amplitude relative to that of reference peptide YLE [panel D]
[8] = target: T2, HLA-A2 (HLA-A2:01) on T2 cells; assay: HLA-A2 stabilization assay on T2 cells, peptide titration, flow cytometry with anti-HLA-A2 BB7.2; column Affinity for HLA A2:01 (M)
[9] = Table 2 (Example 1), EC50 of peptide titration on T2 cells, read-out: Affinity for HLA A2:01
[10] = Table 4 (Examples 1 and 2), EC50 of peptide titration on T2 cells, read-out: Affinity for HLA.A2.01
[11] = Table 2 (Example 1), healthy donor T cells
[12] = Example 1, top-ranked epitopes, no legible unit, read-out: EC50 (HLA-A2 binding)

Molecule: CC(C)C[C@H](NC(=O)[C@H](C)N)C(=O)N[C@@H](C)C(=O)N[C@@H](CS)C(=O)N[C@@H](CO)C(=O)N[C@@H](C)C(=O)N[C@@H](CC(C)C)C(=O)NCC(=O)N[C@H](C(=O)O)C(C)C (H-ALACSALGV-OH; N-terminus and C-terminus assumed)
T cell responses observed (IFNg) against epitope (CD8+ T cells [1]; Table 4): 0/4 co-cultures
EC50 (HLA-A2; [9]): 3.16 µM
EC50 (HLA-A2; [10]): 2.84 µM

Molecule: CC[C@H](C)[C@H](NC(=O)[C@H](Cc1ccc(O)cc1)NC(=O)[C@@H](NC(=O)[C@H](Cc1ccc(O)cc1)NC(=O)[C@H](CC(C)C)NC(=O)[C@H](Cc1ccccc1)NC(=O)[C@H](CCC(N)=O)NC(=O)[C@@H](N)Cc1ccccc1)[C@@H](C)O)C(=O)N[C@@H](C)C(=O)O (H-FQFLYTYIA-OH; N-terminus and C-terminus assumed)
T cell responses observed (IFNg) against epitope (CD8+ T cells [1]; [11]): 1/4 co-cultures
T cell responses observed (IFNg) against epitope (CD8+ T cells [1]; Table 4): 1/4 co-cultures
EC50 (HLA-A2; [12]): 3.3 µM
EC50 (HLA-A2; [9]): 3.28 µM
EC50 (HLA-A2; [10]): 3.43 µM
pMHC staining % pMHC+ CD8+ in CD3+ (CD8+ T cells [2]): 0.43%

Molecule: CSCC[C@H](NC(=O)[C@@H](N)CCCCN)C(=O)N[C@@H](CC(C)C)C(=O)N[C@@H](CCCCN)C(=O)N[C@@H](CCC(=O)O)C(=O)N[C@@H](Cc1ccccc1)C(=O)N[C@@H](C)C(=O)N[C@@H](CCCCN)C(=O)N[C@@H](C)C(=O)O (H-KMLKEFAKA-OH; N-terminus and C-terminus assumed)
T cell responses observed (IFNg) against epitope (CD8+ T cells [1]; Table 4): 0/2 co-cultures
EC50 (HLA-A2; [9]): 91.2 µM
EC50 (HLA-A2; [10]): 38.2 µM

Molecule: CC[C@H](C)[C@H](NC(=O)[C@H](CCCCN)NC(=O)[C@H](CC(C)C)NC(=O)[C@@H](NC(=O)[C@@H](N)CCCCN)[C@@H](C)O)C(=O)N[C@H](C(=O)N[C@@H](CS)C(=O)N[C@@H](CCC(=O)O)C(=O)N[C@H](C(=O)O)C(C)C)C(C)C (H-KTLKIVCEV-OH; N-terminus and C-terminus assumed)
T cell responses observed (IFNg) against epitope (CD8+ T cells [1]; [11]): 2/4 co-cultures
T cell responses observed (IFNg) against epitope (CD8+ T cells [1]; Table 4): 2/4 co-cultures
EC50 (HLA-A2; [12]): 4.4 µM
EC50 (HLA-A2; [9]): 4.35 µM
EC50 (HLA-A2; [10]): 4.4 µM
pMHC staining % pMHC+ CD8+ in CD3+ (CD8+ T cells [2]): 0.28%

Molecule: CC[C@H](C)[C@H](NC(=O)[C@@H](NC(=O)[C@@H](N)CC(C)C)[C@@H](C)CC)C(=O)N[C@@H](CCCNC(=N)N)C(=O)N[C@@H](C)C(=O)N[C@@H](CCC(=O)O)C(=O)N[C@@H](CCC(=O)O)C(=O)N[C@@H](CC(C)C)C(=O)N[C@@H](C)C(=O)N[C@@H](CCC(N)=O)C(=O)N[C@@H](CCSC)C(=O)O (H-LIIRAEELAQM-OH; N-terminus and C-terminus assumed)
T cell responses observed (IFNg) against epitope (CD8+ T cells [1]; Table 4): 1/7 co-cultures
EC50 (HLA-A2; [9]): 6.99 µM
EC50 (HLA-A2; [10]): 6.99 µM
binding to HLA-A2 (HLA-A2): did bind to HLA-A2 with high affinity
pMHC staining % pMHC+ CD8+ in CD3+ (CD8+ T cells [2]): 0.60%

B1: Epitope 5 peptide LIIRAEELAQM of ROPN1 and ROPN1B (peptide)
peptide: LIIRAEELAQM
notes: 11-mer found by immunopeptidomics; tested as synthetic peptide
Amplitude [5]: 3170 geometric mean normalized to baseline
EC50 [6]: 6.99 µM
Minimum stability [3]: 1.27 fold change over baseline
Amplitude [7]: 0.918 relative to YLE
Minimum stability [4]: 1.38 fold change over baseline
EC50 [8]: 6.99 µM

B2: Epitope 1 (MLN) peptide MLNYIEQEV of ROPN1B (peptide)
peptide: MLNYIEQEV
notes: Synthetic peptide (ThinkPeptides/ProImmune)
Amplitude [5]: 3450 geometric mean normalized to baseline
EC50 [6]: 4.82 µM
Minimum stability [3]: 1.13 fold change over baseline
Amplitude [7]: 0.935 relative to YLE
Minimum stability [4]: 1.4 fold change over baseline
EC50 [8]: 6.56 µM

Molecule: FLALACSAL (Synthetic peptide) [Epitope 2 peptide FLALACSAL of ROPN1 and ROPN1B]
Amplitude [5]: 3800 geometric mean normalized to baseline
EC50 [6]: 4.5 µM
Minimum stability [3]: 1.62 fold change over baseline
Amplitude [7]: 0.95 relative to YLE
Minimum stability [4]: 1.41 fold change over baseline
EC50 [8]: 5.05 µM

Further lines, with some results ahead:

EC50 (HLA-A2; Example 1, top-ranked epitopes, read-out: EC50 (HLA-A2 binding)): 5.1 µM
EC50 (HLA-A2; [9]): 5.05 µM
EC50 (HLA-A2; [10]): 4.5 µM
Molecule: CC(C)C[C@H](NC(=O)[C@H](C)NC(=O)[C@H](CO)NC(=O)[C@H](CS)NC(=O)[C@H](C)NC(=O)[C@H](CC(C)C)NC(=O)[C@H](C)NC(=O)[C@H](CC(C)C)NC(=O)[C@@H](N)Cc1ccccc1)C(=O)O [FLALACSAL] (H-FLALACSAL-OH; N-terminus and C-terminus assumed)
T cell responses observed (IFNg) against epitope (CD8+ T cells [1]; [11]): 2/5 co-cultures
T cell responses observed (IFNg) against epitope (CD8+ T cells [1]; Table 4): 2/5 co-cultures
pMHC staining % pMHC+ CD8+ in CD3+ (CD8+ T cells [2]): 0.077%

binding to HLA-A2 (HLA-A2): did not bind to HLA-A2
Molecule: AELTPELLKI (Epitope 16) [eluted 10-mer, mapped in silico to HLA-B40:01]

Minimum stability [3]: 1.06 fold change over baseline
Minimum stability [4]: 1.06 fold change over baseline
Molecule: GLPRIPFST (ROPN1B, predicted)

Minimum stability [3]: 1.09 fold change over baseline
Minimum stability [4]: 1.09 fold change over baseline
Molecule: HVSRMLNYI (ROPN1B, predicted)

Source: patent US20240131155A1, “T CELLS FOR USE IN THERAPY” (Erasmus University Medical Center Rotterdam, priority 2021, published 2024)
